{
  "source": "patent US11446244B2",
  "about": "(priority 2020, dated 2022)",
  "key": {"[1]": {"conditions": "intravenous administration; cited from earlier work"}, "[2]": {"tested_on": "lung metastases", "experiment": "Example 9: osteosarcoma lung metastasis patient case, Gemcitabine dpi", "format": "in vivo", "conditions": "Gemcitabine 60 dpi BID", "text": "2 months later, after standard chemoradiotherapy is completed, they are found to have three 1-cm lung metastases. […] undergoes second line treatment but the lesions progress, so they are started on Gemcitabine 60 dpi BID and has stabilization for 12 months thereafter. Here also, Verteporfin, Ribavirin, and/or Gemcitabine dpi could all be given together coupled with inhaled or intravenous Perflubron (emulsion)."}, "[3]": {"tested_on": "SARS-CoV-2", "conditions": "patients with severe COVID-19; intravenous Ribavirin versus supportive care only; cited from earlier work"}, "[4]": {"conditions": "in vivo; cited from earlier work"}, "[5]": {"tested_on": "SARS-CoV", "conditions": "BALB/c mice; cited from earlier work"}, "[6]": {"tested_on": "Coronavirus", "experiment": "Example 7: coronavirus infection patient case, Ribavirin dpi", "format": "in vivo", "conditions": "dpi 60 mg twice daily for 6 days, started after 2 days of fever", "description": "A nonsmoker having no previous lung disease develops symptoms of fever for 2 days and is then immediately started on Ribavirin dpi 2 p or 60 mg twice daily for 6 days. […] They avoid hospitalization and thereby avoids what may have been up to an increased 15-20% risk. Verteporfin and Gemcitabine dpi could be substituted for the Ribavirin."}, "[7]": {"target": "nsp14 (Severe acute respiratory syndrome coronavirus, UniProt P0C6X7)", "conditions": "cited from earlier work"}, "[8]": {"experiment": "Example 8: COPD and bilateral pneumonia/ARDS patient case, acetylcysteine dpi", "format": "in vivo", "conditions": "dpi every 4 hours with a bronchodilator", "description": "A smoker with history of moderate chronic obstructive pulmonary disease (COPD) mixed type who has been diagnosed with acute respiratory distress syndrome (ARDS) secondary to bilateral pneumonia. The patient has a very productive cough but not expectorating significant secretions and is currently on high flow system 70% FIO2 (fraction of inspired oxygen). […] The patient is initiated on acetylcysteine dpi every 4 hours along with a bronchodilator (e.g., DUONEB albuterol and ipratropium)."}, "[9]": {"conditions": "lipophilic solvents such as perfluorocarbons like perflubron; cited from earlier work"}, "[10]": {"conditions": "cited from earlier work"}, "[11]": {"experiment": "Example 11: interstitial pulmonary fibrosis patient case, Verteporfin", "format": "in vivo", "conditions": "15 mg 1 p BID", "text": "A nonsmoker farmer has a diagnosis of interstitial pulmonary fibrosis with progressive symptoms over the past 6 months and with reduction in FVC by Pulmonary Function testing. […] Here also, Verteporfin combined with inhaled Perflubron nintedanib may be given. Subsequent or concomitant PDT and/or SDT promotes the elimination of myofibroblasts/macrophages that are otherwise engaged in fibrosis."}, "[12]": {"target": "YAP1 (yes-associated protein 1) (Homo sapiens, UniProt P46937)", "sequence (P46937 whole entry)": "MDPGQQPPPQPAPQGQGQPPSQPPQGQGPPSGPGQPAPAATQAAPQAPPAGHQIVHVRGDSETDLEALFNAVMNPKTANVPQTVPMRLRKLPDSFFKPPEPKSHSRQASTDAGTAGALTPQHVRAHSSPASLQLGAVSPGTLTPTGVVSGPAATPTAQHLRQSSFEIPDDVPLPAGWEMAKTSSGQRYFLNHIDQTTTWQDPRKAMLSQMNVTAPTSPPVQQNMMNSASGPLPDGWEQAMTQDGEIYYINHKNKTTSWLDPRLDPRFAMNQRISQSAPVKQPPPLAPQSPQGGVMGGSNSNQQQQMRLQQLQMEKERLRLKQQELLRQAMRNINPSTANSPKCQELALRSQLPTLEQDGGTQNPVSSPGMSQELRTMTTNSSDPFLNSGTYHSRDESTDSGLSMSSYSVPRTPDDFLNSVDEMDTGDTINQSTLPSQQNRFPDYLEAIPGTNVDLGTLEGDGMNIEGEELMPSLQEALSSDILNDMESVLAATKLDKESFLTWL", "conditions": "cited from earlier work"}, "[13]": {"tested_on": "Glioblastoma multiforme", "experiment": "Example 12: glioblastoma multiforme patient case, Verteporfin nasal and oral inhalation", "format": "in vivo", "conditions": "15 mg two puffs twice daily, six weeks", "description": "The patient had standard of care treatment that included surgical resection, radiation and chemotherapy, but then had recurrence and is not candidate for surgical curative intent.\nImmunohistochemistry at the 2nd operation is positive for PD-L1 and the patient is started on Verteporfin 15 mg two puffs twice daily both nasal and oral for the next six weeks. […] Here, drug delivery via intravenous route is avoided and possible direct brain delivery via nasal pathway is enabled. Here, systematic delivery of the drug by both nasal and oral inhalation is contemplated."}},
  "note": "“Also recorded” adds a separate entry of the source.",
  "data": [
    {"compound": "Nc1ccn([C@@H]2O[C@H](CO)[C@@H](O)C2(F)F)c(=O)n1", "note": "[Gemcitabine]", "values": [
      {"measurement": "warning label adverse effects", "setting": "[1]", "value": "can suppress bone marrow function"},
      {"measurement": "duration of stabilization of lung metastases", "setting": "[2]", "value": 12, "unit": "months"}
    ]},
    {"compound": "NC(=O)c1ncn([C@@H]2O[C@H](CO)[C@@H](O)[C@H]2O)n1", "note": "[Ribavirin]", "values": [
      {"measurement": "negative conversion time for SARS-CoV-2 test", "setting": "[3]", "value": "not associated with improved negative conversion time; also recorded: not associated with reduced negative conversion time"},
      {"measurement": "hemoglobin concentrations", "setting": "[4]", "value": "reduces hemoglobin concentrations"},
      {"measurement": "SARS-CoV infection in treated mice", "setting": "[5]", "value": "increased SARS-CoV1 infection"},
      {"measurement": "clinical outcome (symptoms)", "setting": "[6]", "value": "symptomatic improvement"},
      {"measurement": "excision of Ribavirin by exonuclease activity of nsp14", "setting": "[7]", "value": "can efficiently excise"}
    ]},
    {"compound": "CC(=O)N[C@@H](CS)C(=O)O", "note": "[acetylcysteine, N-acetyl cysteine]", "values": [
      {"measurement": "clinical outcome (need for mechanical ventilation)", "setting": "[8]", "value": "avoid mechanical ventilation"}
    ]},
    {"compound": "Verteporfin", "values": [
      {"measurement": "solubility", "setting": "[9]", "value": "soluble in lipophilic solvents"},
      {"measurement": "extent of exposure and maximal plasma concentration versus dose", "setting": "[10]; dose between 6-20 mg/m^2", "value": "proportional to the dose"},
      {"measurement": "serum half-life", "setting": "[10]; in vivo", "value": "5 to 6", "unit": "h"},
      {"measurement": "effect on lung decline", "setting": "[11]", "value": "stabilizing effect on lung decline"},
      {"measurement": "YAP1 inhibition", "setting": "[12]", "value": "inhibits YAP1"},
      {"measurement": "tumor mass", "setting": "[13]", "value": "overall reduction in tumor mass"}
    ]}
  ]
}
